Results published in ChEMBL document CHEMBL1201862, “PubChem BioAssay data set” (2004).
Activity calls are given as the source filed them. Unless noted, the calls are words filed in the database; no cut-off is given here.

What was measured:
NADPH oxidase 3 = NADPH oxidase 3 (Homo sapiens, UniProt Q9HBY0); assay: PubChem AID 435013
NADPH oxidase 1 [1] = target: T1, NADPH oxidase 1 (Homo sapiens, UniProt Q9Y5S8); assay: NOX1 inhibitors, concentration-response, dose response, cell-based, luminescence, cherry picks 2 (AID 434997); assay type: functional
T1 sequence (Q9Y5S8 whole entry): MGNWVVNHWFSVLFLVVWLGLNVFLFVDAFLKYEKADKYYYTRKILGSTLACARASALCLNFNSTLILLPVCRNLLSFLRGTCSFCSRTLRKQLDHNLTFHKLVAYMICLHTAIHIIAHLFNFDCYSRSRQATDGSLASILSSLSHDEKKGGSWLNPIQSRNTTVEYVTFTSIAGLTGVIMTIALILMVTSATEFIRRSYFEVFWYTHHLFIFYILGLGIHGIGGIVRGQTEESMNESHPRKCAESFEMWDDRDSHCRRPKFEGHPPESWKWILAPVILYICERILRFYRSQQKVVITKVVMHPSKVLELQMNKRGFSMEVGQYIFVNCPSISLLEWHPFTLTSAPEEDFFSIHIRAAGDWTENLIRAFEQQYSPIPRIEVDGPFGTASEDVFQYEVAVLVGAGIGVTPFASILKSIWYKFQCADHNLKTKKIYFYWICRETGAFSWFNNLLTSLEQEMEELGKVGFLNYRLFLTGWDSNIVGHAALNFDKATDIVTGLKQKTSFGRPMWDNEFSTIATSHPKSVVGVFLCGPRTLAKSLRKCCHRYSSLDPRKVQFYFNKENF

NADPH oxidase 4 = NADPH oxidase 4 (Homo sapiens, UniProt Q9NPH5); assay: PubChem AID 435013
NADPH oxidase 1 [2] = target: T1, NADPH oxidase 1; assay: ROS production inhibition in HEK293 cells, late-stage follow-up, counter-screen for NOX1 inhibitor project, cell-based, IC50, set 2 (AID 435002); assay type: functional
NADPH oxidase 2 = NADPH oxidase 2 (Homo sapiens, UniProt P04839); assay: PubChem AID 435013
[3] = target: Protein-arginine deiminase type-4 (Homo sapiens, UniProt Q9UM07); assay: human PAD4 inhibitor potency, dose response, biochemical, fluorescence readout (AID 492970)
[4] = A cytotoxicity screen of small molecule inhibitors of the PhoP region in Salmonella typhi identified in the primary screen. [Related pubchem assays: 1850, 1864, 1985 ]; assay type: functional
Hexokinase-1 = Hexokinase-1 (Homo sapiens, UniProt P19367); assay: hexokinase 1 activators, dose response, selectivity assay for HKDC1 activator project, biochemical (AID 504762); assay type: functional
Hexokinase HKDC1 = target: T2, Hexokinase HKDC1 (Homo sapiens, UniProt Q2TB90); assay: HKDC1 hexokinase activators, dose response, biochemical, W721R variant (AID 504730); assay type: functional
T2 sequence (Q2TB90 whole entry): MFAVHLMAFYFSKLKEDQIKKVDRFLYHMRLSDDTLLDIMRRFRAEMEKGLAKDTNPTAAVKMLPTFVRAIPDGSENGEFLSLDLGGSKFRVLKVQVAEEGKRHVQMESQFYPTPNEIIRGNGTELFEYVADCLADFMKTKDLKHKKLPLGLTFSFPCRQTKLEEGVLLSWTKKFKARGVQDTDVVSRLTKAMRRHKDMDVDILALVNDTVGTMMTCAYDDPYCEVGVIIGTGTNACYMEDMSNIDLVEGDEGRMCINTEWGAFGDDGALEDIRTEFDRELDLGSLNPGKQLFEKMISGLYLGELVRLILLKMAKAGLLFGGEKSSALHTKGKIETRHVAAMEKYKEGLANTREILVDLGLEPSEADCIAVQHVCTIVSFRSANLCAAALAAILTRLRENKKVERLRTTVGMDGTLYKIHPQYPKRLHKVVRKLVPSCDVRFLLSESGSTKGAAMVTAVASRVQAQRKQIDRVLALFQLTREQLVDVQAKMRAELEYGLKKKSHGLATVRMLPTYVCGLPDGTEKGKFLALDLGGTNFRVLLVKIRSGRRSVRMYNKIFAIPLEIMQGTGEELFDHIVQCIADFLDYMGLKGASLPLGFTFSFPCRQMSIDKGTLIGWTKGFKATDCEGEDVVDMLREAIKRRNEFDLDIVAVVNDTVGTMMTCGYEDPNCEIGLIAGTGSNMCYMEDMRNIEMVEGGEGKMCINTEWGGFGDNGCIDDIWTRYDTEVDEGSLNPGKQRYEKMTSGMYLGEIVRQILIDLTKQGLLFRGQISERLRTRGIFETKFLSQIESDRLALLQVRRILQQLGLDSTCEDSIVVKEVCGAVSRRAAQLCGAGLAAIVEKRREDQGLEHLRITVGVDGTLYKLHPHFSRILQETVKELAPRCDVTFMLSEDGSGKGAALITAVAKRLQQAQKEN

Chain of Protein-arginine deiminase type-4 (Q9UM07 whole entry): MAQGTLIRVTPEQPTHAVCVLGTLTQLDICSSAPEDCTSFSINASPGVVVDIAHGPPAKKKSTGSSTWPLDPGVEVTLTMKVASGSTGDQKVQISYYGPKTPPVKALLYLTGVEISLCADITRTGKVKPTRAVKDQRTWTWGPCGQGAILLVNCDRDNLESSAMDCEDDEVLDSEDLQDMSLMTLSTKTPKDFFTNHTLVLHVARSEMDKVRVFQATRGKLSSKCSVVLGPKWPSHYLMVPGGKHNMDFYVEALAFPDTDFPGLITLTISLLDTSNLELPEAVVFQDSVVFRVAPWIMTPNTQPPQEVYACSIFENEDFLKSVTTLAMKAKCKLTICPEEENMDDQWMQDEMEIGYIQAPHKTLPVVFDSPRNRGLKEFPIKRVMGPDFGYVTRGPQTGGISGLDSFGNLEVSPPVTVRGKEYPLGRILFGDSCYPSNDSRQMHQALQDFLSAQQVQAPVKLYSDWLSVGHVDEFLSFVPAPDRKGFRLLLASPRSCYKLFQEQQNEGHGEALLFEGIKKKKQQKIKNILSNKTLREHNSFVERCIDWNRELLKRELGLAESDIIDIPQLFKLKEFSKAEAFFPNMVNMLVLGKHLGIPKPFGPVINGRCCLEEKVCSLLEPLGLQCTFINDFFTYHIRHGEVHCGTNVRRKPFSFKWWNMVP
Chain of NADPH oxidase 2 (P04839 whole entry): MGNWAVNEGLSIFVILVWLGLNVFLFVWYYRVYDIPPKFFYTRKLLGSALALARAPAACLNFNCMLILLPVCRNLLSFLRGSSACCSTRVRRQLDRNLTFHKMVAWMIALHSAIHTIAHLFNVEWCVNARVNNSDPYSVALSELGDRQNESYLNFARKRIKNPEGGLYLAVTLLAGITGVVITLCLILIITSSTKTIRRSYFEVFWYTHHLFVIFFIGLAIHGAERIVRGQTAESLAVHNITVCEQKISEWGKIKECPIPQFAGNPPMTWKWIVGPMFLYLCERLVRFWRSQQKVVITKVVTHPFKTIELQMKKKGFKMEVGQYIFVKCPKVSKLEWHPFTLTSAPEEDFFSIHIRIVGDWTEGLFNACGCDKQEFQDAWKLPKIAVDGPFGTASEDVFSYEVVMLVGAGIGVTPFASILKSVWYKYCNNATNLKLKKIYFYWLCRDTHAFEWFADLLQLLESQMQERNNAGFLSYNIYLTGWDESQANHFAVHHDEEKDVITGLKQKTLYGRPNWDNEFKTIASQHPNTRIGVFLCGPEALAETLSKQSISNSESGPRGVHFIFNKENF
Chain of NADPH oxidase 4 (Q9NPH5 whole entry): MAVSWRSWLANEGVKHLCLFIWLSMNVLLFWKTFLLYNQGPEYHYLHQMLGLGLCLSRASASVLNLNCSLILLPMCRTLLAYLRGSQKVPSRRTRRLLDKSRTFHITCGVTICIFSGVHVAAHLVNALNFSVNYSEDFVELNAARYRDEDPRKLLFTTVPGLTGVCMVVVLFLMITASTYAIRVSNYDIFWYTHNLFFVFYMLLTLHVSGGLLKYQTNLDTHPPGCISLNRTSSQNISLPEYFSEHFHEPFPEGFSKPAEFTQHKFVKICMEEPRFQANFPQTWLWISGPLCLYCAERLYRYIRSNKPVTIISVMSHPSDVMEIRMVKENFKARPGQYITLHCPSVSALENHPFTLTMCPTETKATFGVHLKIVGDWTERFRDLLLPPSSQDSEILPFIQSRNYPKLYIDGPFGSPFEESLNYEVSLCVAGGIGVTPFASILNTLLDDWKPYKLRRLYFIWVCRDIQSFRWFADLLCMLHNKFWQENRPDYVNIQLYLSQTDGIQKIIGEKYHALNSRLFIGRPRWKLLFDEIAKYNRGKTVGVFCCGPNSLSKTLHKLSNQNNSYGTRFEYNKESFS
Chain of NADPH oxidase 3 (Q9HBY0 whole entry): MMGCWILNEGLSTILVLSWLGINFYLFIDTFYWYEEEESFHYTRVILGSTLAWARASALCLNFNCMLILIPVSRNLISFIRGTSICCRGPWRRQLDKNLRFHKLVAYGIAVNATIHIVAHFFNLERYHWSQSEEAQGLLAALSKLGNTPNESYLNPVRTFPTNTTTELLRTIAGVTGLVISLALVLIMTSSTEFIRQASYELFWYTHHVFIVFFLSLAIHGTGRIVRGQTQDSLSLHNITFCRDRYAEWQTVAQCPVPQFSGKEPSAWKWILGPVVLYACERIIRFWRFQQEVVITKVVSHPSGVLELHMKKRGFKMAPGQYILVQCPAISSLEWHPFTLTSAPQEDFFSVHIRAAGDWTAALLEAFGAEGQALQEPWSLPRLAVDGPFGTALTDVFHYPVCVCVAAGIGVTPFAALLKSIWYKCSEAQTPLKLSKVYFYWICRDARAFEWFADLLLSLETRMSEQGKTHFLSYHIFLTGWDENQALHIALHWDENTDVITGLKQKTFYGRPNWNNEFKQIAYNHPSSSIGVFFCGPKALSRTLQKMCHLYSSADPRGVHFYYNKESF
Chain of Hexokinase-1 (P19367 whole entry): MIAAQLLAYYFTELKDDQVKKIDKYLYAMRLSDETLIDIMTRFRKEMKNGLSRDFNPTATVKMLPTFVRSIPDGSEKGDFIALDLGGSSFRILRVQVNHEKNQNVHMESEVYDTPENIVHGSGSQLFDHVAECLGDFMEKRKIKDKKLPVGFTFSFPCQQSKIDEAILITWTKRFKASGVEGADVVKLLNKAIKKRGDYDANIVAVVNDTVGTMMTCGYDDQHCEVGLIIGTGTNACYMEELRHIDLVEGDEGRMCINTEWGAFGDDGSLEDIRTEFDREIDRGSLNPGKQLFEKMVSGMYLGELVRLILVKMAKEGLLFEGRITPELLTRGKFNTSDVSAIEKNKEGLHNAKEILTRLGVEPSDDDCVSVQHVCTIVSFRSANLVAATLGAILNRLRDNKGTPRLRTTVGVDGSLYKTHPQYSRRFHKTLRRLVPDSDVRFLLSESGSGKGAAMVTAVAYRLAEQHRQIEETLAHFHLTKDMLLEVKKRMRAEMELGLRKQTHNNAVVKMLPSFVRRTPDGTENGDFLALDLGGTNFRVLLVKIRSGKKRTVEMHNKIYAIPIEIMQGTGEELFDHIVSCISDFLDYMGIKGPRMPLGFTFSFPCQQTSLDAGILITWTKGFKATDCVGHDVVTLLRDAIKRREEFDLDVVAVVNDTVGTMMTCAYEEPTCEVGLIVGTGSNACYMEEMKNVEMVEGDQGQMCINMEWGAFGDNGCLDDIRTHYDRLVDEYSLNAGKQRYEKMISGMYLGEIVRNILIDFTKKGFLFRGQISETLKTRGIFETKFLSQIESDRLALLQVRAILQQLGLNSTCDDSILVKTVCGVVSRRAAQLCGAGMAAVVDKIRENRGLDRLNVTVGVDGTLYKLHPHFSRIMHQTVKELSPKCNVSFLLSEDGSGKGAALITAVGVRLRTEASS

CN(C)c1ccc(/C=N/Nc2c(Cl)cncc2Cl)cc1
IC50 (NADPH oxidase 3): 20 µM (inactive)
IC50 (NADPH oxidase 1 [1]): 0.44 µM (active)
IC50 (NADPH oxidase 4): 9 µM (active)
IC50 (NADPH oxidase 1 [2]): 4 µM (active)
IC50 (NADPH oxidase 2): > 10 µM (inactive)

CC(=O)c1cc([N+](=O)[O-])c(Sc2ccc(Cl)cc2)s1
IC50 [3]: 92 µM (inactive)

Nc1nc(N2CCN(c3ccccn3)CC2)nc2ccccc12
EC50 [4]: > 50 µM (active)
EC50 (Hexokinase-1): 32.2 µM (inactive)
EC50 (Hexokinase HKDC1): 25.4 µM (inactive)
